Patent US20090264384A1, “INDOLE, BENZIMIDAZOLE, AND BENZOLACTAM BORONIC ACID COMPOUNDS, ANALOGS THEREOF AND METHODS OF USE THEREOF” (Nuada, Inc., priority 2004, published 2009)

Experiments:
[1] = biological target: T1, β1(h) (Homo sapiens, UniProt P08588); assay: β1(h) binding assay; details: read-out: % Inhibition of Control Specific Binding
T1 construct: expressed in transfected cells; host or cells: HEK-293 cells

[2] = biological target: T2, CCKA(h) (CCK1) (Homo sapiens, UniProt P32238); assay: CCKA(h) (CCK1) binding assay; details: read-out: % Inhibition of Control Specific Binding
T2 construct: expressed in transfected cells; host or cells: CHO cells
T2 sequence (P32238 whole entry): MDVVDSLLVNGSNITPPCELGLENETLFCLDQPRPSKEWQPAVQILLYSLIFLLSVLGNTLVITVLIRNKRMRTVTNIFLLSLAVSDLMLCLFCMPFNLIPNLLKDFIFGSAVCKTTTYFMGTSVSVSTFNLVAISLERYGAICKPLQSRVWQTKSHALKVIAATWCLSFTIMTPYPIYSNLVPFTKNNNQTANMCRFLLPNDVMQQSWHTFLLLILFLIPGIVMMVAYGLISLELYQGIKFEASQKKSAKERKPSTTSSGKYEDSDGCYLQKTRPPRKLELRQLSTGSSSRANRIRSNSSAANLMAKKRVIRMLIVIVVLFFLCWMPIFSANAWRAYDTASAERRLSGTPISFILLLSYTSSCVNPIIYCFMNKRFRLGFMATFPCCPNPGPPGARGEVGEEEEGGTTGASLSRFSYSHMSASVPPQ

[3] = biological target: T3, CCKB(h) (CCK2) (Homo sapiens, UniProt P32239); assay: CCKB(h) (CCK2) binding assay; details: read-out: % Inhibition of Control Specific Binding
T3 construct: expressed in transfected cells; host or cells: HEK-293 cells
T3 sequence (P32239 whole entry): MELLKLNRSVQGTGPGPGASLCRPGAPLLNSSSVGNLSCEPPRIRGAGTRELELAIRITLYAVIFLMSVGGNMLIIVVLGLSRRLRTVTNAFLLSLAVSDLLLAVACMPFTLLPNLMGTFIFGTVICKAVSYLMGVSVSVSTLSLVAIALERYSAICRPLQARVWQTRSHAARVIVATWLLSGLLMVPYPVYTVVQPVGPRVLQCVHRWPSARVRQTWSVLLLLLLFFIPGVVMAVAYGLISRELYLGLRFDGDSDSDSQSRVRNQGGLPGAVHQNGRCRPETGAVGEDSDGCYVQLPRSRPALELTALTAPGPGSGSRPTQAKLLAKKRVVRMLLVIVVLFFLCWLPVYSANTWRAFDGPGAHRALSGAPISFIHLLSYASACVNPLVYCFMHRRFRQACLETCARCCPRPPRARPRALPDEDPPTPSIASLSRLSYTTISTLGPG

[4] = test system: I2 (central); assay: I2 (central) binding assay; set-up: species or system rat; details: 1.0E−05 M
[5] = biological target: T4, MC4(h) (Homo sapiens, UniProt P32245); assay: MC4(h) binding assay; details: 1.0E−05 M; read-out: % Inhibition of Control Specific Binding
T4 construct: expressed in transfected cells; host or cells: HEK-293 cells
T4 sequence (P32245 whole entry): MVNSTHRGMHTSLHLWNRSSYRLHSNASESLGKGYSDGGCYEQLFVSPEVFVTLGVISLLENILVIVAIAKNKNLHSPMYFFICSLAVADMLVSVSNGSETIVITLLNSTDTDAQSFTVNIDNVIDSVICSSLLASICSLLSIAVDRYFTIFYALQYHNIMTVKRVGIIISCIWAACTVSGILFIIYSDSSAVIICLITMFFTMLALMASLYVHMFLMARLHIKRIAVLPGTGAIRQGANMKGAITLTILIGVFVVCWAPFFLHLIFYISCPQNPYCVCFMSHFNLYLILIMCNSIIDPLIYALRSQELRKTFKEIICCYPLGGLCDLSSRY

[6] = test system: Opiate (non-selective); assay: Opiate (non-selective) binding assay; set-up: species or system rat; details: 1.0E−05 M
[7] = biological target: T5, V2(h) (Homo sapiens, UniProt P30518); assay: V2(h) binding assay; details: 1.0E−05 M; read-out: % Inhibition of Control Specific Binding
T5 construct: expressed in transfected cells; host or cells: CHO cells
T5 sequence (P30518 whole entry): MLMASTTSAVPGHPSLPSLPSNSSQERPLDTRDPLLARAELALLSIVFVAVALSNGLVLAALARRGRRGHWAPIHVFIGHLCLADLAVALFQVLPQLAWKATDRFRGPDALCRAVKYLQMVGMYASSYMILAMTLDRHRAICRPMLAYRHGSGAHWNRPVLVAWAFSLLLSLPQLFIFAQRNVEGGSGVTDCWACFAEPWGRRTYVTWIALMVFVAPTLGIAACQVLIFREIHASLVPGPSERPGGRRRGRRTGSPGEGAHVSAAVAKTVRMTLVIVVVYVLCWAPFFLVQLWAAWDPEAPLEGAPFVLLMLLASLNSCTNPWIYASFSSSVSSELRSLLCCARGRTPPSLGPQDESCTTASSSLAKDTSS

[8] = test system: colitis provoked by trinitrobenzene sulphonic acid (TNBS); assay: Rat model of colitis provoked by TNBS, 3 days, treatment from Day −1 (CCI-7155, CCI-7156); type: in vivo; details: vs CMC group
Method: The effects of CCI-7155 and CCI-7156, were evaluated in the TNBS model at one and two oral dose levels, administered twice a day by gavage, treatment commencing 1 day prior to challenge. A low intracolonic concentration of TNBS (10 mg) was used, known to produce reproducible yet not unduly severe mucosal injury in the colon, determined 3 days after instillation. Colonic macroscopic injury has been assessed, as has colonic weight as a reflection of colonic oedema and wet/dry weight to determine colonic water content, along with determination of myeloperoxidase (MPO) activity (Bradley et al, 1982) as an index of white cell infiltration for the evaluation of tissue injury. In addition to the test compounds [CCI-7155 and CCI-7156], the actions of sulfasalazine, a well-established and currently used treatment has also been evaluated in this model.
TNBS Challenge—Male Wistar rats (230-280 g) were randomised into groups of 8-10 before commencement of the study. Food was withdrawn 18 h (overnight) before TNBS administration, but the rats were allowed free access to drinking water. On the morning of the day of challenge, Day 0, the rats were transiently anaesthetised with ether and TNBS (10 mg in 0.25 ml of 50% ethanol) was instilled approximately 6-8 cm into the colon using a soft plastic catheter inserted in the rat rectum. The rats were allowed to recover with free access to food and drinking water. At the end of the experiment, 72 h after TNBS administration (i.e. on the morning of Day 3, between 9.00 and 11.00), the distal colon was dissected, and the distal 8 cm photographed and stored appropriately for subsequent analyses.
The following primary parameters were measured in the main study: (a) macroscopic scoring of distal 8 cm of colon; (b) myeloperoxidase levels in segments of distal 8 cm of colon. In addition, the weight of the colonic segment was assessed as an indirect and non-specific marker of oedema, and this was supported by measurement of the wet/dry ratio as an index of water content. The body weight of the animals was also determined and expressed as % change from the day of challenge.
Treatments. All challenged groups were dosed orally twice daily from Day −1. The groups for study were:
The compounds were thus administered orally, twice daily and given on Day −b 1 before TNBS administration, on Day 0, the day of TNBS administration and on Day 1 and 2. Tissues were removed 72 h after TNBS administration (on Day3). Dosing was performed once in the morning (Between 9:00 and 11:00) and once in the late afternoon (between 18:00 and 20:00).
Preparation of Compound. CCI-7155 and CCI-7156 were suspended in 0.5% w/v carboxy methyl cellulose in sterile water, to produce a smooth suspension as instructed, and administered in a volume of 2 ml/kg (˜0.5 ml per rat per dose).
Preparation of Sulfasalazine. the Doses of Sulfasalazine Used in the Present study were derived from previously published work with this agent in the TNBS model (Boughton-Smith et al, 1988; Sykes et al, 1999; Galvez et al, 2000; Bobin-Dubigeon et al, 2001). Sulfasalazine was suspended in carboxy methyl cellulose (0.5% w/v in sterile water; Sigma Chemical Co, compound reference M-0262) and administered p.o. in a volume of 0.5 ml. In previous studies in these laboratories, this concentration of carboxy methyl cellulose (CMC) had no significant effect on the extent of colitis as determined by macroscopic injury and changes in inflammatory markers following TNBS challenge.
Macrocopic Injury. The distal 8 cm portion of the colon (measured from the rectum) was removed, opened longitudinally and gently rinsed with ice-cold phosphate buffer (PBS; pH 7.4), blotted, weighed (Scaltec, Germany) and photographed (Samsung, Digimax 340, digital camera). The tissue was then cut into longitudinal strips, each strip being thus 8 cm long and included the whole of the zone of injury. […]

[9] = test system: colitis provoked by trinitrobenzene sulphonic acid (TNBS); assay: Rat model of colitis provoked by TNBS, 3 days, treatment from Day −1 (CCI-7308); type: in vivo; details: vs CMC group
Source text: In the study, colonic macroscopic injury has been assessed, as has colonic weight as a reflection of colonic oedema, along with determination of MPO activity (Bradley et al, 1982) as an index of white cell infiltration for the evaluation of tissue injury. The methods and protocol used were substantially similar to those in Example 39, with some differences described below. TNBS Challenge—Male Wistar rats (270-330 g) were randomised into groups of 10-11 before commencement of the study. The following primary parameters were measured in the study: In addition, the weight of the colonic segment was assessed as an indirect and non-specific marker of oedema. The body weight of the animals was also determined and expressed as % change from the day of challenge. Treatments. All challenged groups were dosed orally twice daily from Day −1. The groups for study were: Colon homogenates for cytokine measurements. […] Tissue homogenates were lysed for 30 min. on ice, and then centrifuged (10 min., 14, 000×g). The aliquots of the supernatant were stored at −20° C. until use (Ten Hove et al., 2001). Tumour Necrosis Factor-a Activity. The TNF-α levels were determined with quantitative TNF-α solid-phase Enzyme Linked ImmunoSorbent Assay (ELISA), which is based on the sandwich principle (HyCult biotechnology b. V;. Cat number: […] At the end of the ELISA assay, the samples were measured spectrophotometrically (Benchmark Microplate reader, Bio-Rad Lab; λ=450 nm). The samples were diluted 2 or 4 times with the sample buffer included in the kit. The TNF-α values were expressed as pg/mg protein. This commercially available kit (Hycult Biotechnology b.v. Uden, The Netherlands. Catalogue number: […]

[10] = 50 mg/kg/day p.o. in divided doses b.i.d.
[11] = 50 mg/kg/day p.o. in divided doses, 72 h after TNBS
[12] = 50 mg/kg/day p.o. in divided doses

T1 sequence (P08588 whole entry): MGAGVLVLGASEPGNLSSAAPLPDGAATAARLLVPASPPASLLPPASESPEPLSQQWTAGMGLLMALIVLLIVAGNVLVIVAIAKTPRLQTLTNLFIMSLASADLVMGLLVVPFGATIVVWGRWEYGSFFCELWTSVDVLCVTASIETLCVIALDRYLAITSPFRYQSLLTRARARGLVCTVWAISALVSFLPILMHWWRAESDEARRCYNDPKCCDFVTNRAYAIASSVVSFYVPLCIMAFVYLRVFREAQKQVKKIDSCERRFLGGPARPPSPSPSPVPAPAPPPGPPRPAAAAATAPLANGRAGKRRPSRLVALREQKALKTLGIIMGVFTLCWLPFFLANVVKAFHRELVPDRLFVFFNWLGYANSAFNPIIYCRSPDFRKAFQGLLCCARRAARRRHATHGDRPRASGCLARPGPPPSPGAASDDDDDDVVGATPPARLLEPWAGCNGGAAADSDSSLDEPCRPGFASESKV

SMILES: N#Cc1ccc2c(ccn2CCCCCB(O)O)c1 [Example 20, 5-(5-cyano-1H-indol-1-yl)pentylboronic acid]
- inhibition at 10 µM [1]: 7%
- inhibition at 10 µM [2]: 7%
- inhibition at 10 µM [3]: 5%
- % Inhibition of Control Specific Binding [4]: 1%
- inhibition at 10 µM [5]: 2%
- % Inhibition of Control Specific Binding [6]: 20%
- inhibition at 10 µM [7]: 5%

SMILES: O=C(O)c1cc(/N=N/c2ccc(S(=O)(=O)Nc3ccccn3)cc2)ccc1O [sulfasalazine, reference compound]
- attenuation of TNBS-induced fall in body weight (% change in body weight at Day 0) [8, 10]: did not reach statistical significance
- reduction in area of macroscopic colonic injury [8, 11]: significantly (P<0.001) reduced the extent of macroscopic injury
- reduction in colon weight [8, 11]: significant reduction in colon weight was also not observed
- reduction in colonic MPO levels [8, 11]: significantly reduced the elevated colonic levels of MPO
- reduction in colonic water content (wet/dry weight) [8, 11]: significant reduction in colon weight was also not observed
- attenuation of TNBS-induced fall in body weight (% change in body weight at Day 0) [9, 10]: reached statistical significance at Day 1, 2 and 3
- reduction in area of macroscopic colonic injury [9, 11]: significantly (P<0.001) reduced the extent of macroscopic injury
- reduction in colon weight [9, 12]: significant (P<0.05) reduction in colon weight
- reduction in colonic MPO activity [9, 12]: significantly reduced the elevated colonic levels of MPO
- reduction in colonic TNF-α levels [9, 12]: significantly reduced the elevated colonic levels of TNF-α
